# In patent publication US11033545B2, “Negative allosteric modulators of MGLUR5 for use in the treatment of mature brain damages” (Sinntaxis AB, priority 2016, dated 2021):
# Columns and labels:
# [1] = test system: male C57/BL6 mice; test: Infarct size after photothrombotic stroke in the mouse; assay type: in vivo; conditions: 5 mg/kg i.p. for 5 days, FIG. 2B
# Experimental: Tissue collection. The animals were deeply anesthetized (isoflurane) and perfusion-fixed with 4% paraformaldehyde (PFA) solution. Brains were collected and immersed in 4% PFA solution for 4 h, then transferred into a 25% sucrose phosphate buffer solution (0.1 M NaH2PO4, 0.1 M Na2HPO4) and stored at 4° C. Brains were then cut in 30 μm slices using a microtome and one slice was kept each 1 mm for infarct size measurement. The others were kept for immunohistochemistry and immunofluorescence. All the slices were stored in anti-freeze solution (30% ethylene glycol, 30% glycerol, 0.01 M NaH2PO4, 0.03 M Na2HPO4) at −20° C.
# Immunohistochemistry. Free-floating brain slices were rinsed three times in PBS (phosphate buffer saline) and quenched in 3% H2O2 and 10% MetOH for 15 minutes. […]
# Infarct measurements. […] Twelve slices 1 mm apart, were scanned, and the non-lesioned area of the infarcted hemisphere and the non-lesioned contralateral hemisphere were outlined and measured using the ImageJ software (National Institute of Health, USA). Infarct volume (mm^3) was determined by subtracting the area of the non-lesioned ipsilateral hemisphere from that of the intact contralateral hemisphere, and calculated by volumetric integration for each animal. […]
# The animals were perfused and immunostained as in Example 1, and the infarct size was assessed as in Example 1.
# [2] = test system: male C57/BL6 mice; test: Paw placement test after photothrombotic stroke in the mouse; assay type: in vivo; conditions: mouse; five days treatment initiated 10 days after stroke; FIG. 2C
# Experimental: Animals. All experiments were carried out with the approval of the Malmo-Lund animal review board and according to the ARRIVE guidelines. The experiments were carried out on male C57/BL6 mice (8 weeks of age, Charles River Scanbur A/S Karlslunde, Denmark). Studies were subjected to randomization and carried out in a blinded fashion to the investigators who performed the surgeries and behavioral assessment.
# Materials were as in Example 1 and the administration of the drug was made as in Example 1. Also the positive allosteric modulator (PAM) for the mGlur5 receptor was SIN006 (N-Cyclobutyl-6-[2-(3-fluorophenyl)ethynyl]-3-pyridinecarboxamide hydrochloride; VU0360172).
# Induction of stroke in the mouse. Mice were subjected to unilateral photothrombotic (PT) cortical infarct in the left sensori-motor cortex. During surgery, the body temperature of the animals was kept at 37° C. using a self-regulating heating pad. Animals were anesthetized using 1.5-2.5% isoflurane (Sigma) in 100% 02. The skin above the skull was incised; a fiber optic bundle with a 2.5 mm aperture diameter was connected to a cold light source (CL 1500 ECO, Zeiss, Germany) and adjusted to the stereotaxic coordinates of the sensori-motor cortex, 0.5 mm anterior to bregma and 1.5 mm lateral to midline. One intraperitoneal (i.p.) injection of 0.25 ml Rose Bengal (10 mg/ml in 0.9% saline; Sigma-Aldrich, Germany) was given 5 min before the light was turned on for 20 minutes. Care was taken not to exceed 38° C. at the skull surface, underneath the fiber optic bundle. Post surgery, animals were allowed to awake from anesthesia while on a heating pad and returned to the cages with free access to food pellets and water.
# Enriched housing. It is well known that housing of rodents in an enriched environment stimulates the various sensori-motor systems of the brain enhancing recovery after experimental stroke. Enriched housing was accomplished by the following procedure. After selective sorting at day 2 after stroke, mice were randomly distributed into standard (STD, 17 cm×16 cm×34.5 cm) or enriched cages (EE, 30 cm×27 cm×43 cm). Multilevel-enriched cages were equipped with various colored objects such as plastic tunnels, small houses, slides and rodent running wheels; the disposition of the objects was changed every second day. Mice were housed in either standard (2 animals/cage) or enriched cages (6-8 animals/cage) for 12 days. Animals in standard cages were handled similarly except for the housing condition.
# Paw placement test. The mouse was held along its rostro-caudal extension on the edge of a bench and both the unilateral front and hind paws were gently pushed along it. The placement of each paw was recorded when the mouse was moved towards the edge. Sensori-motor dysfunction was assessed by using a score of 1, 0.5, and 0: (1)—the paw is immediately placed on the table surface; (0.5)—the limb is extended, but with some movements and attempts to place the paw on the surface of the table; (0)—the paw is totally immobilized, hanging down, with no movement. In order to obtain groups with a similar functional deficit prior to treatment of the animals with drugs or vehicle, selective sorting was performed on day 2 after experimental stroke, a time point of recovery when the infarct development had subsided.
# Administration of the compounds. The compounds were administrated orally (p.o.) by catheters placed in the stomach. The amount of solutions were 0.2 ml/rat and 0.1 ml/mice.
# Induction of stroke was as made as in Example 1 for rats and as in Example 2 in mice. Assessment of neurological function was performed as in Example 1 for rats and as in Example 2 for mice. The animals were perfused and immunostained as in Example 1, and the infarct size was assessed as in Example 1.
compound,measurement,setting,value
"Cc1nc(C#Cc2cccnc2)cs1 [SIN007, 3-[(2methyl-1,3-thiazol-4-yl)ethynyl]pyridine]",infarct size,[1],8.9±0.9 mm^3
same,mean infarct size compared to vehicle,[1],the mean infarct size was the same in the two groups
same,"recovery of function, delayed treatment",[2],the recovery of function is the same as when treatment is initiated at 2 days after stroke
